{"source": "patent US5942489A", "about": "“HGH-RH(1-29)NH2 analogues having antagonistic activity” (The Administrators of the Tulane Educational Fund, priority 1996, dated 1999)", "key": {"[1]": {"system": "GH release stimulated by hGH-RH(1-29)NH2", "assay": "In vivo inhibition of hGH-RH(1-29)NH2-stimulated serum GH in anesthetized rats", "parameters": "species or system Sprague-Dawley rats", "method": "In Vivo Tests. Adult male Sprague-Dawley rats are anesthetized with pentobarbital (6 mg/100 g b.w., i.p.). Blood samples are taken from the jugular vein 30 min after the injection of pentobarbital. One group of 7 animals receives hGH-RH(1-29)NH2 as control. […] Blood samples are taken from the jugular vein 5 and 15 min after the injection of antagonists. GH levels are measured by RIA. Potencies of the antagonists are calculated by the factorial analysis of Bliss and Marks with 95% confidence limits and are based on the doses of 100 and 400 μg/kg b.w. of the Standard antagonist and 20 and 80 μg/kg b.w. of the antagonists tested. Statistical significance was assessed by Duncan's new multiple range test."}, "[2]": {"system": "SW-1990 human pancreatic cancers", "assay": "SW 1990 human pancreatic cancers in nude mice", "assay_type": "in vivo", "method": "Small piees of an SW-1990 rumor growing in a nude mouse were transplated s.c. into the right flanks of 60 nu/nu male nude mice. Ten days after transplantation, 40 mice with well growing tumors were groupled into 4 groups with equal average tumor volume (16 mm^3) in each group. Treatment started 13 days after transplantation and was continuted for 44 days. The tumors were measured and volume was calculated weekly. Tumor volume changes are shown in Table V. On day 45 of treatment the mice were sacraficed under Metofane anesthesia by exsanguination from abdominal aorta. Blood was collected, tumor and organ weights were determined."}, "GH release": {"system": "GH release", "conditions": "cited from earlier work"}, "[3]": {"conditions": "80 μg/kg i.v., 15 min prior to GH-RH(1-29)NH2 3 μg/kg"}}, "note": "“And” between values parts separate entries of the source, which are not always exact repeats. Equal entries are not always repeated."}
{"compound": "CC[C@H](C)[C@H](NC(=O)[C@H](C)NC(=O)[C@H](CC(=O)O)NC(=O)[C@H](C)NC(=O)[C@@H](N)Cc1ccc(O)cc1)C(=O)N[C@@H](Cc1ccccc1)C(=O)N[C@H](C(=O)N[C@@H](CC(N)=O)C(=O)N[C@@H](CO)C(=O)N[C@@H](Cc1ccc(O)cc1)C(=O)N[C@@H](CCCNC(=N)N)C(=O)N[C@@H](CCCCN)C(=O)N[C@H](C(=O)N[C@@H](CC(C)C)C(=O)NCC(=O)N[C@@H](CCC(N)=O)C(=O)N[C@@H](CC(C)C)C(=O)N[C@@H](CO)C(=O)N[C@@H](C)C(=O)N[C@@H](CCCNC(=N)N)C(=O)N[C@@H](CCCCN)C(=O)N[C@@H](CC(C)C)C(=O)N[C@@H](CC(C)C)C(=O)N[C@@H](CCC(N)=O)C(=O)N[C@@H](CC(=O)O)C(=O)N[C@H](C(=O)N[C@@H](CCSC)C(=O)N[C@@H](CO)C(=O)N[C@@H](CCCNC(=N)N)C(N)=O)[C@@H](C)CC)C(C)C)[C@@H](C)O", "note": "[GH-RH (1-29) NH2, Tyr-Ala-Asp-Ala-Ile^5 -Phe-Thr-Asn-Ser-Tyr^10 -Arg-Lys-Val-Leu-Gly^15 -Gln-Leu-Ser-Ala-Arg^20 -Lys-Leu-Leu-Gln-Asp^25 -Ile-Met-Ser-Arg^29 -NH2]", "values": [{"measurement": "Serum GH Levels", "setting": "[1]; GH-RH(1-29)NH2 alone 3.0 μg/kg i.v. (stimulated control)", "result": "695.15 ± 95.40 ng/mL and 703.34 ± 90.01 ng/mL and 724.68 ± 93.01 ng/mL and 883.36 ± 148.34 ng/mL and 703.34 ± 93.01 ng/mL"}]}
{"compound": "Ibu^0 --D--Arg^2 --Phe(pCl)^6 --Abu^16 --Nle^27 ] hGHRH (1-28) Agm [Peptide A]", "values": [{"measurement": "Inhibition %", "setting": "[1]; [3]", "result": 43, "unit": "%"}, {"measurement": "Serum GH Levels", "setting": "[1]; [3]", "result": "585.33 ± 89.34", "unit": "ng/mL"}, {"measurement": "Serum GH Levels", "setting": "[1]; 80 μg/kg i.v., 30 min prior to GH-RH(1-29)NH2 3 μg/kg", "result": "788.39 ± 96.93", "unit": "ng/mL"}, {"measurement": "effect on growth of SW-1990 cancers (volume and weight data)", "setting": "[2]; Peptide #8 at 10 μg/day", "result": "no significant effect on the tumors"}, {"measurement": "Final Tumor Volume mm^3", "setting": "[2]; dose 10, 44 days treatment", "result": "1183 ± 342", "unit": "mm^3"}, {"measurement": "Tumor weights", "setting": "[2]; dose 10, 44 days treatment", "result": "1467 ± 595", "unit": "mg"}, {"measurement": "Final Tumor Volume mm^3", "setting": "[2]; dose 40, 44 days treatment", "result": "902 ± 156", "unit": "mm^3"}, {"measurement": "Tumor weights", "setting": "[2]; dose 40, 44 days treatment", "result": "1297 ± 258", "unit": "mg"}]}
{"compound": "[AcTyr^1 ]hGH-RH(1-29)NH2", "values": [{"measurement": "in vivo potency over that of GH-RH", "setting": "GH release", "result": "ten fold or more"}]}
